# Assay results: patent publication US7671057B2, “Therapeutic agent for type II diabetes comprising protease-inhibiting compound” (Ono Pharmaceutical Co., Ltd., priority 2004, dated 2010)
# Columns and labels:
# Assay type in all cases: in vivo, mouse
# KK-A^y/Ta Jcl mice [1] = assay: Weights of pancreas, liver and kidney at autopsy (Example 3)
# Method: On Day 28 of administration of each compound in the form of an admixture with a food, furthermore, each animal after blood had been drawn from the tail vein was treated through individual forced oral administration of the Test Compound 2 in the form of the solutions individually consisting of 0.2, 0.6, 2.0 and 6.0 mg/mL-0.5% CMC suspension in each 5 mL/kg portion, as well as the Control Compound 1 in the form of the solutions individually consisting of 2.0 and 6 mg/mL-0.5% CMC suspension in each 5 ml/kg portion, followed by blood drawing 30 min. later and autopsy to thereby measure the weights of the pancreas, liver and kidney, whereby the control group was treated through administration of the 0.5% CMC suspension in the same portion.
# KK-A^y/Ta Jcl mice [2] = assay: Blood-sugar level at satiety, dose-ranging food admixture up to Day 28 (Example 3); settings: for Blood-sugar level: end of the test (Day 28)
# Method: KK-A^y/Ta Jcl Mice (male, 6-weeks aged, the number of cases; 8 animals) were treated through individual administration, in the form of an admixture with a food, of the Test Compound 2 (N-allyl-N-{(2E)-3-[4-({4-[amino(imino)methyl]phenoxy}-carbonyl)phenyl]-2-methyl-2-propenoyl}glycine/dimethanesulfonate) of the present invention at the daily doses of 0.56 mg, 1.68 mg, 5.6 mg and 16.8 mg/100 g-food, respectively, and the Control Compound 1 (5-{4-[2-(5-ethylpyridine-2-yl)-ethoxy]benzyl}-1,3-thiazolidine-2,4-dion; pioglitazone) at the daily doses of 5.6 mg and 16.8 mg/100 g-food, respectively, […], whereby the control group was fed with an ordinary food alone.
# Blood was drawn from the tail vein individually on the day preceding to administration of each compound in the form of an admixture with a food, and on Days 6, 11, 16, 21 and 28 of administration.
# The blood samples taken from the tail vein on the respective specified days after the administration were subjected to measurement of the blood-sugar level in accordance with the method as described in Example 1, while the plasma glucagon level after the forced oral administration performed on Days 28 was measured in accordance with the ELISA method as described in Example 1. Also, the glycosylated hemoglobin (HbA1c) and GLP-1 levels were determined in accordance with the latex coagulation method and the ELISA method (YK160, GLP-1 EIA Kit, produced by K.K. Yanaihara Kenkyu-sho of Japan), respectively, while the TG level was measured in accordance with the method as described in Example 1. The total pancreatic insulin content after oral administration of each compound was determined by adding 75% ethanol to the isolated pancreas as frozen, followed by homogenization, and collecting the insulin fraction through Sep-Pak (C18; WATER) treatment of the supernatant liquid produced by centrifugation, followed by determination with the ELIZA method.
# KK-A^y/Ta Jcl mice [3] = assay: Plasma TC, TG, blood-sugar, IRI and IRG levels 3 hours subsequent to the glucose-loading test (Example 1); settings: 3 hours subsequent to glucose-loading test, after 14 days 30 mg/kg p.o.
# Method: As from Day 14 afterwards, the animals after being fasted for 18 hours or more were loaded orally with a glucose solution (2 g/kg, 10 mL/kg), whereby the blood-sugar levels were measured before, and 120 min. after, the said glucose loading. Each of the compounds was given orally to the animals 3 hours prior to the glucose loading, and the whole blood was drawn from each of the animals under anesthesia. Each of the said blood samples was centrifuged to yield a blood plasma, and the resultant blood plasmas were all preserved under freezing in a ultra-low-temperature freezer for subsequent use in the below-described measurements.
# The blood-sugar level, total cholesterol level (hereinafter referred to briefly as “TC level”) and triglyceride level (hereinafter referred to briefly as “TG level”) were detected individually in accordance with the hexokinase/G-6-PDH method, enzyme method and GPO/HDAOS method, and measured with use of Biochemical Auto-Analyzer (Model AU 400, manufactured by Olympus Co. of Japan). The plasma insulin level (hereinafter referred to briefly as “IRI level”) and the plasma glucagon level (hereinafter referred to briefly as “IRG level”) were detected individually with the ELISA method (Lebisinsulin Mouse Insulin Kit, produced by K.K. Shibayagi of Japan) and the ELISA method (YK090 Glucagon EIA Kit, produced by K.K. Yanaihara Kenkyuu-sho of Japan), followed by measurement with use of a plate reader (Immuno Mini NJ-2300, Nalge Nunc International K.K. of Japan).
# The blood-sugar, TC, TG, IRI and IRG levels and the body weight were expressed as a mean value±standard deviation as calculated for each group of animals. With reference to the significance test between the group treated through administration of the medium and each group treated through administration of the compound, the F test was effected to analyze the data and then, the Student's t-test and Aspin-Welch's t-test were used in cases where the variance between the two groups was determined to be equal and unequal, respectively. Referring to the significance level, less than 5% (p<0.05) was considered significant, and the significance level was expressed as divided into the two events of less than 1% (**: p<0.01) and less than 5% (*: p<0.05).
# [4] = Body weight after repeated administration for 14 days (Example 1); settings: after repeated administration for 14 consecutive days
# Method: Following the above-described single administration, the repeated, once-a-day forced oral administration of each compound was performed at the same daily dose for the total period of 14 consecutive days. […] The blood-sugar, TC, TG, IRI and IRG levels and the body weight were expressed as a mean value±standard deviation as calculated for each group of animals. With reference to the significance test between the group treated through administration of the medium and each group treated through administration of the compound, the F test was effected to analyze the data and then, the Student's t-test and Aspin-Welch's t-test were used in cases where the variance between the two groups was determined to be equal and unequal, respectively.
# [5] = autopsy Day 28, Dose 16.8 (g/100 g-food)
compound,measurement,setting,value
"CCc1ccc(CCOc2ccc(CC3SC(=O)NC3=O)cc2)nc1 (stereo not drawn) [Control Compound 1, 5-{4-[2-(5-ethylpyridine-2-yl)ethoxy]benzyl}-1,3-thiazolidine-2,4-dione, reference compound]",Weight of the liver (in words),KK-A^y/Ta Jcl mice [1]; autopsy Day 28,raise further the weight of the liver
same,Weight Kidney,KK-A^y/Ta Jcl mice [1]; [5],0.49 ± 0.02 g
same,Weight Liver,KK-A^y/Ta Jcl mice [1]; [5],2.62 ± 0.11 g
same,Weight Pancreas,KK-A^y/Ta Jcl mice [1]; [5],0.36 ± 0.01 g
same,Blood-sugar lowering effect at the end of the test (Day 28) (in words),KK-A^y/Ta Jcl mice [2]; 16.8 mg/100 g group,no blood-sugar lowering effect observed
same,"Time-course changes in blood-sugar level at satiety vs Control Group (in words, FIG. 1)",KK-A^y/Ta Jcl mice [2]; 16.8 mg/100 g group,significant drops in blood-sugar level on Days 6 and 11
same,Blood-sugar level,KK-A^y/Ta Jcl mice [2]; Dose 5.6 (g/100 g-food),561.6 ± 28.2 mg/dL
same,Blood-sugar level,KK-A^y/Ta Jcl mice [2]; Dose 16.8 (g/100 g-food),497.0 ± 26.8 mg/dL
same,Blood-sugar level,KK-A^y/Ta Jcl mice [3],289.9 ± 20.6 mg/dL
same,IRG (plasma glucagon level),KK-A^y/Ta Jcl mice [3],488 ± 45.8 pg/mL
same,IRI (plasma insulin level),KK-A^y/Ta Jcl mice [3],1.25 ± 0.28 ng/mL
same,TC,KK-A^y/Ta Jcl mice [3],114.6 ± 4.8 mg/dL
same,TG,KK-A^y/Ta Jcl mice [3],72.7 ± 4.7 mg/dL
same,Effect on mouse body-weight vs control medium group (in words),[4],significant elevation in the body weight
same,Body weight,[4]; 30 mg/kg p.o.,31.7 ± 0.8 g
